For series [1], the system named is FKBP5 mRNA (GR target engagement). In words: Human skin explant, FKBP5 gene expression. It counts as cell-based. The following applies: human skin explants; for FKBP5 Emax / FKBP5 Relative ED50 (API concentration in dosing solution): topical, 24 h; for FKBP5 Relative ED50 (API concentration in dosing solution): weighted geometric mean ± SD. The method, then: (§1) NativeSkin models (NS002) were purchased from Genoskin, France. Human skin samples from abdominal reduction surgery were obtained by Genoskin from donors upon written informed consent. Full ethical approval for the study protocol was obtained from the French ethical research committee (Comité de Protection des Personnes), and authorization was given by the French Ministry of Research. The study was conducted according to the Declaration of Helsinki. 8 mm punch biopsies were excised and embedded in a fibrin-based matrix in transwells and a silicone ring was firmly attached to the surface covering the outer edge of the skin biopsy to prevent lateral diffusion of topically applied formulations. Skin models were cultured in a defined hydrocortisone- and serum-free medium provided by Genoskin.
(§2) LEO 134310 and reference glucocorticoids were dissolved in propylene carbonate and tested at 4 concentrations in five- or tenfold titrations. Compounds were applied in duplicates or triplicates on the skin surface (0.5 cm^2) in a volume of 2 µL and incubated for 24 h. Vehicle and untreated samples were included for basal level of expression.
(§3) RNA was extracted and qPCR was performed using TaqMan gene expression assays (FKBP5-Hs01561006_m1, TSC22D3 (GILZ)-Hs00608272_m1, TXNIP-Hs01006900_g1, ACTB-Hs99999903_m1, PPIA-Hs99999904_m1, GAPDH-Hs99999905_m1). Gene expression of FKBP5,TSC22D3 (GILZ), and TXNIP was normalized to the geometric mean of the reference genes ACTB, PPIA and GAPDH.
(§4) Doses were expressed as compound (API) concentrations (µg/mL) in the applied formulations. Relative upregulation of FKBP5 was estimated as − fold to vehicle treated control. Effective doses (Emax and ED50) were determined from a sigmoid Emax model in Phoenix64 version 8.0, Pharsight, Certara. Mean values and standard deviation of Emax and ED50 were calculated by weighing individual experiments based on the intra- and inter-experiment variability.

In the next series the test system is minipig skin. In words: Local tolerance study in minipigs (skin atrophy). It counts as in vivo. Conditions: for Discoloration of application sites: 4 weeks topical; for Reduction in epidermal thickness: 4 weeks, vs untreated and vehicle controls. Here is the method:
5 male Göttingen SPF minipigs (5–7 months old; body weight 12–15 kg) were obtained from Ellegaard Göttingen Minipigs A/S, Dalmose, Denmark.
Each animal was treated for 6 h daily over 28 days with 25 µL of the following topical formulations on an application area of 2.5 cm × 2.5 cm: Vehicle (transcutol:acetone (1:9) with 10% hydroxy-propyl-cellulose); Dermovate cream (CP 0.05%), CP 0.05% in vehicle; Betnovate cream (BMV 0.1%); BMV 0.1% in vehicle; LEO 134310 2% in vehicle. One test field on each animal remained untreated.
Formulations were spread uniformly over the indicated clipped area and covered with porous gauze dressing. At the end of each exposure period all application site as well as the untreated area were rinsed with a mild soap (Abena Mild cream soap, Abena A/S, Denmark) in water and dried with a paper towel.
Skin biopsies were taken from anaesthetized animals 24 h after the last treatment. Samples for histopathological examination were fixed in phosphate buffered neutral 4% formaldehyde and stained with H&E. Mean arithmetic epidermal thickness was determined by measuring epidermal area, excluding stratum corneum, and dividing this area with the length of the epidermis. All measurements were performed on H&E stained and scanned slides using the Visiopharm software.

Series [2] deals with LPS-induced TNF-alpha release in PBMCs. Kind of series: TNF-alpha inhibition assay, pig PBMCs. Format: cell-based. Conditions: for EC50: geometric mean. The method, then:
(§5) PMBCs were isolated from human buffy coats or animal whole blood (EDTA-treated). Buffy coats from anonymized healthy adult blood donors were obtained from the Blood Bank of the National University Hospital Copenhagen in accordance with national legislation. Whole blood from mice (obtained from Charles River) was sampled at the animal facility at LEO Pharma and whole blood from pigs was sourced from ScanTox. Test compounds and PBMCs were incubated with 1 µg/ml LPS (Sigma) overnight at 37 °C in HEPES and Glutamax-containing RPMI medium supplemented with either 0.5% human serum albumin (human PBMCs) or 10% fetal bovine serum (mouse and pig PBMCs) and penicillin/streptomycin. TNF-alpha was measured using AlphaLISA (Perkin Elmer).
(§6) IC50 of test compounds was determined by 10-point titrations in duplicates. IC50 values and other parameters were calculated by sigmoidal curve fitting in Assay Explorer.

The next series relates to TXNIP mRNA. In words: Human skin explant, TXNIP gene expression. It counts as cell-based. Conditions: human skin explants, topical, 24 h; for TXNIP Relative ED50: weighted geometric mean ± SD. The method, then: as §1, §2, §3, §4
For series [3], the system named is LPS-induced TNF-alpha release in PBMCs. In words: TNF-alpha inhibition assay, human PBMCs. It counts as cell-based. The following applies: for EC50: geometric mean; for Potency compared to LEO 134310, TNF-alpha release: human PBMC assay. Here is the method:
as §5, §6

Setting [4] is: CP 0.05%, BMV 0.1%, 6 h daily semi-occlusion.

For `CCC(=O)O[C@]1(C(=O)CCl)[C@@H](C)C[C@H]2[C@@H]3CCC4=CC(=O)C=C[C@]4(C)[C@@]3(F)[C@@H](O)C[C@@]21C` [CP, Clobetasol Propionate], in series [1], the “FKBP5 Emax” value is listed as 6.9 ± 3.1^NS fold to control and the “FKBP5 Relative ED50 (API concentration in dosing solution)” value (shortened to “FKBP5 Relative ED50”) is reported as 0.52 ± 0.06^NS µg/mL. In the series with minipig skin, the “Discoloration of application sites” value is “notable discoloration was observed in most application sites”. The “Reduction in epidermal thickness” value with minipig skin (setting [4]) is given as 30–40%. In series [2] (Sus scrofa, PBMC), this molecule displayed an Emax of 95% and an EC50 of 0.38 nM. Further, in the series with TXNIP mRNA, the “TXNIP Emax” value was 19 ± 8.5^NS fold to control and the “TXNIP Relative ED50” value amounted to 1.3 ± 0.33 µg/mL. For the same molecule, in series [3] (PBMC, Human PBMCs), the Emax is 79% and a half-maximal effect (EC50) was put at 0.52 nM. Also, the “Potency compared to LEO 134310, TNF-alpha release” value in series [3] is “fourfold more potent”.

`C[C@H](NC(=O)[C@H]1CCCO1)[C@H](Oc1ccc(C(=O)O[C@H]2CCCN(C(=O)[C@H]3COC(=O)C3)C2)cc1)c1ccc(C2CC2)cc1` [LEO 134310]: in series [1], the “Higher dose needed to achieve similar level of FKBP5 induction as BMV” value is “approximately 30 fold”, the “FKBP5 Emax” value is 7.2 ± 2.7^NS fold to control and the “FKBP5 Relative ED50” value is 270 ± 130 µg/mL. The “Reduction in epidermal thickness” value with minipig skin (LEO 134310 2%, 6 h daily) is “did not result in any significant reduction in epidermal thickness”. In series [2], the “Inhibition of LPS-induced TNF-alpha release Emax” value amounted to 96% and the EC50 turned out to be 3.2 nM. Besides, in the series with TXNIP mRNA, the “TXNIP Emax” value is 19 ± 7.3^NS fold to control and the “TXNIP Relative ED50” value is given as 110 ± 300^NS µg/mL. Moreover, in series [3] (Human PBMCs), the “Inhibition of LPS-induced TNF-alpha release Emax” value was found to be 77% and the EC50 came out at 2.3 nM.

Turning to `CCCCC(=O)O[C@]1(C(=O)CO)[C@@H](C)C[C@H]2[C@@H]3CCC4=CC(=O)C=C[C@]4(C)[C@@]3(F)[C@@H](O)C[C@@]21C` [BMV, Betamethasone Valerate], in series [1], the “FKBP5 Emax” value is 5.6 ± 4.9 fold to control and the “FKBP5 Relative ED50” value is 9.5 ± 6.9 µg/mL. Also, the “Discoloration of application sites” value in the series with minipig skin was “notable discoloration was observed in most application sites”. Further, the “Reduction in epidermal thickness” value with minipig skin (setting [4]) was 30–40%. Further, in series [2] (Sus scrofa, PBMC), the Emax was found to be 99% and a half-maximal response (EC50) required 1.5 nM. In addition, in the series with TXNIP mRNA, the “TXNIP Emax” value is on record as 17 ± 17 fold to control and the “TXNIP Relative ED50” value is on record as 52 ± 15 µg/mL. In addition, in series [3] (PBMC, Human PBMCs), the Emax worked out at 79% and the EC50 stood at 3.2 nM. The “Potency compared to LEO 134310, TNF-alpha release” value in series [3] is “equipotent”.

These data come from article PMC8795149, “Characterization of a novel non-steroidal glucocorticoid receptor agonist optimized for topical treatment” (Scientific Reports, 2022).
